In ChEMBL document CHEMBL3046940, “Microwave-assisted synthesis of novel 4H-chromene derivatives bearing 2-aryloxyquinoline and their antimicrobial activity assessment” (2013):
Values after ≈ are worked out from the molar mass of the structure shown.

Experiments:
Type in all cases: functional
[1] = test system: Escherichia coli; experiment: Antimicrobial activity against Escherichia coli MTCC 443 assessed as growth inhibition after 24-48 hr by NCCLS broth microdilution method
[2] = test system: Streptococcus pneumoniae; experiment: Antimicrobial activity against Streptococcus pneumoniae MTCC 1936 assessed as growth inhibition after 24-48 hr by NCCLS broth microdilution method
[3] = test system: Clostridium tetani; experiment: Antimicrobial activity against Clostridium tetani MTCC 449 assessed as growth inhibition after 24-48 hr by NCCLS broth microdilution method
[4] = test system: Aspergillus fumigatus; experiment: Antimicrobial activity against Aspergillus fumigatus MTCC 3008 assessed as growth inhibition after 24-48 hr by NCCLS broth microdilution method
[5] = test system: Candida albicans; experiment: Antimicrobial activity against Candida albicans MTCC 227 assessed as growth inhibition after 24-48 hr by NCCLS broth microdilution method
[6] = test system: Bacillus subtilis; experiment: Antimicrobial activity against Bacillus subtilis MTCC 441 assessed as growth inhibition after 24-48 hr by NCCLS broth microdilution method
[7] = test system: Vibrio cholerae; experiment: Antimicrobial activity against Vibrio cholerae MTCC 3906 assessed as growth inhibition after 24-48 hr by NCCLS broth microdilution method
[8] = test system: Salmonella typhi; experiment: Antimicrobial activity against Salmonella enterica subsp. enterica serovar Typhi MTCC 98 assessed as growth inhibition after 24-48 hr by NCCLS broth microdilution method

**Q.** How did the MIC [1] turn out when `N#CC1=C(N)OC2=C(C(=O)CCC2)C1c1cc2ccccc2nc1Oc1ccc(F)cc1` (stereo not given) was run?
**A.** 100 µg/mL (≈ 234 µM)

**Q.** And the MIC [2]?
**A.** 250 µg/mL (≈ 585 µM)

**Q.** What about the MIC [3] of the same compound?
**A.** 500 µg/mL (≈ 1170 µM)

**Q.** What about the MIC [4] of the same compound?
**A.** > 1000 µg/mL

**Q.** And the MIC [5]?
**A.** 250 µg/mL (≈ 585 µM)

**Q.** And the MIC [6]?
**A.** 250 µg/mL (≈ 585 µM)

**Q.** And the MIC [7]?
**A.** 500 µg/mL (≈ 1170 µM)

**Q.** And the MIC [8]?
**A.** 200 µg/mL (≈ 468 µM)

**Q.** For `COC1=CC(=O)C[C@@H](C)[C@]12Oc1c(Cl)c(OC)cc(OC)c1C2=O` [GRISEOFULVIN], which MIC [4] is on record?
**A.** 100 µg/mL (≈ 283 µM)

**Q.** And the MIC [5]?
**A.** 500 µg/mL (≈ 1420 µM)

**Q.** With `COc1ccc2nc(Oc3ccc(C)cc3)c(C3C(C#N)=C(N)OC4=C3C(=O)CC(C)(C)C4)cc2c1` (stereo not given) as the compound, how does the MIC [1] read?
**A.** 100 µg/mL (≈ 208 µM)

**Q.** What about the MIC [2] of the same compound?
**A.** 500 µg/mL (≈ 1040 µM)

**Q.** What about the MIC [3] of the same compound?
**A.** 100 µg/mL (≈ 208 µM)

**Q.** What about the MIC [4] of the same compound?
**A.** 500 µg/mL (≈ 1040 µM)

**Q.** What about the MIC [5] of the same compound?
**A.** 1000 µg/mL (≈ 2080 µM)

**Q.** What about the MIC [6] of the same compound?
**A.** 500 µg/mL (≈ 1040 µM)

**Q.** What about the MIC [7] of the same compound?
**A.** 200 µg/mL (≈ 415 µM)

**Q.** What about the MIC [8] of the same compound?
**A.** 100 µg/mL (≈ 208 µM)

**Q.** What does the source list for NYSTATIN?
**A.** MIC [4]: 100 µg/mL; MIC [5]: 100 µg/mL

**Q.** Which results are given for `Cc1ccc(Oc2nc3ccccc3cc2C2C(C#N)=C(N)OC3=C2C(=O)CCC3)cc1` (stereo not given)?
**A.** MIC [1]: 250 µg/mL (≈ 590 µM); MIC [2]: 500 µg/mL (≈ 1180 µM); MIC [3]: 500 µg/mL (≈ 1180 µM); MIC [4]: 500 µg/mL (≈ 1180 µM); MIC [5]: 500 µg/mL (≈ 1180 µM); MIC [6]: 1000 µg/mL (≈ 2360 µM); MIC [7]: 200 µg/mL (≈ 472 µM); MIC [8]: 500 µg/mL (≈ 1180 µM)

**Q.** `O=C(O)c1cn(C2CC2)c2cc(N3CCNCC3)c(F)cc2c1=O` [CIPROFLOXACIN] was tested. Which MIC [1] did it give?
**A.** 25 µg/mL (≈ 75.4 µM)

**Q.** What about the MIC [2] of the same compound?
**A.** 50 µg/mL (≈ 151 µM)

**Q.** And the MIC [7]?
**A.** 25 µg/mL (≈ 75.4 µM)

**Q.** And the MIC [8]?
**A.** 25 µg/mL (≈ 75.4 µM)

**Q.** `COc1ccc2nc(Oc3ccc(F)cc3)c(C3C(C#N)=C(N)OC4=C3C(=O)CC(C)(C)C4)cc2c1` (stereo not given) was tested. Which MIC [1] did it give?
**A.** 62.5 µg/mL (≈ 129 µM)

**Q.** And the MIC [2]?
**A.** 150 µg/mL (≈ 309 µM)

**Q.** What about the MIC [3] of the same compound?
**A.** 200 µg/mL (≈ 412 µM)

**Q.** And the MIC [4]?
**A.** 500 µg/mL (≈ 1030 µM)

**Q.** And the MIC [5]?
**A.** 500 µg/mL (≈ 1030 µM)

**Q.** And the MIC [6]?
**A.** 200 µg/mL (≈ 412 µM)

**Q.** What about the MIC [7] of the same compound?
**A.** 250 µg/mL (≈ 515 µM)

**Q.** What about the MIC [8] of the same compound?
**A.** 100 µg/mL (≈ 206 µM)

**Q.** What does the source list for `CCn1cc(C(=O)O)c(=O)c2cc(F)c(N3CCNCC3)cc21` [NORFLOXACIN]?
**A.** MIC [1]: 10 µg/mL (≈ 31.3 µM); MIC [2]: 10 µg/mL (≈ 31.3 µM); MIC [3]: 50 µg/mL (≈ 157 µM); MIC [6]: 100 µg/mL (≈ 313 µM); MIC [7]: 10 µg/mL (≈ 31.3 µM); MIC [8]: 10 µg/mL (≈ 31.3 µM)

**Q.** `O=C(N[C@H](CO)[C@H](O)c1ccc([N+](=O)[O-])cc1)C(Cl)Cl` [CHLORAMPHENICOL] was tested. Which MIC [1] did it give?
**A.** 50 µg/mL (≈ 155 µM)

**Q.** What about the MIC [2] of the same compound?
**A.** 50 µg/mL (≈ 155 µM)

**Q.** And the MIC [3]?
**A.** 50 µg/mL (≈ 155 µM)

**Q.** And the MIC [6]?
**A.** 50 µg/mL (≈ 155 µM)

**Q.** What about the MIC [7] of the same compound?
**A.** 50 µg/mL (≈ 155 µM)

**Q.** What about the MIC [8] of the same compound?
**A.** 50 µg/mL (≈ 155 µM)

**Q.** How did the MIC [1] turn out when `COc1ccc2nc(Oc3ccccc3)c(C3C(C#N)=C(N)OC4=C3C(=O)CC(C)(C)C4)cc2c1` (stereo not given) was run?
**A.** 200 µg/mL (≈ 428 µM)

**Q.** And the MIC [2]?
**A.** 500 µg/mL (≈ 1070 µM)

**Q.** And the MIC [3]?
**A.** 100 µg/mL (≈ 214 µM)

**Q.** And the MIC [4]?
**A.** 1000 µg/mL (≈ 2140 µM)

**Q.** What about the MIC [5] of the same compound?
**A.** 500 µg/mL (≈ 1070 µM)

**Q.** What about the MIC [6] of the same compound?
**A.** 500 µg/mL (≈ 1070 µM)

**Q.** What about the MIC [7] of the same compound?
**A.** 200 µg/mL (≈ 428 µM)

**Q.** And the MIC [8]?
**A.** 500 µg/mL (≈ 1070 µM)

**Q.** Which results are given for `N#CC1=C(N)OC2=C(C(=O)CCC2)C1c1cc2ccccc2nc1Oc1ccccc1` (stereo not given)?
**A.** MIC [1]: 100 µg/mL (≈ 244 µM); MIC [2]: 250 µg/mL (≈ 611 µM); MIC [3]: 250 µg/mL (≈ 611 µM); MIC [4]: 1000 µg/mL (≈ 2440 µM); MIC [5]: 500 µg/mL (≈ 1220 µM); MIC [6]: 250 µg/mL (≈ 611 µM); MIC [7]: 250 µg/mL (≈ 611 µM); MIC [8]: 250 µg/mL (≈ 611 µM)

**Q.** With `COc1ccc(Oc2nc3ccccc3cc2C2C(C#N)=C(N)OC3=C2C(=O)CCC3)cc1` (stereo not given) as the compound, how does the MIC [1] read?
**A.** 150 µg/mL (≈ 341 µM)

**Q.** And the MIC [2]?
**A.** 100 µg/mL (≈ 228 µM)

**Q.** And the MIC [3]?
**A.** 1000 µg/mL (≈ 2280 µM)

**Q.** What about the MIC [4] of the same compound?
**A.** > 1000 µg/mL

**Q.** And the MIC [5]?
**A.** 1000 µg/mL (≈ 2280 µM)

**Q.** And the MIC [6]?
**A.** 200 µg/mL (≈ 455 µM)

**Q.** And the MIC [7]?
**A.** 100 µg/mL (≈ 228 µM)

**Q.** What about the MIC [8] of the same compound?
**A.** 250 µg/mL (≈ 569 µM)

**Q.** Which results are given for `COc1ccc(Oc2nc3ccc(OC)cc3cc2C2C(C#N)=C(N)OC3=C2C(=O)CC(C)(C)C3)cc1` (stereo not given)?
**A.** MIC [1]: 250 µg/mL (≈ 502 µM); MIC [2]: 1000 µg/mL (≈ 2010 µM); MIC [3]: 250 µg/mL (≈ 502 µM); MIC [4]: 500 µg/mL (≈ 1000 µM); MIC [5]: 250 µg/mL (≈ 502 µM); MIC [6]: 1000 µg/mL (≈ 2010 µM); MIC [7]: 250 µg/mL (≈ 502 µM); MIC [8]: 250 µg/mL (≈ 502 µM)

**Q.** Which results are given for `CC1(C)S[C@@H]2[C@H](NC(=O)[C@H](N)c3ccccc3)C(=O)N2[C@H]1C(=O)O` [AMPICILLIN]?
**A.** MIC [1]: 100 µg/mL (≈ 286 µM); MIC [2]: 100 µg/mL (≈ 286 µM); MIC [3]: 250 µg/mL (≈ 715 µM); MIC [6]: 250 µg/mL (≈ 715 µM); MIC [7]: 100 µg/mL (≈ 286 µM); MIC [8]: 100 µg/mL (≈ 286 µM)
